Test results from patent US20100291605A1, “ASSAYS FOR S-ADENOSYLMETHIONINE-DEPENDENT […]” (WASHINGTON STATE UNIVERSITY RESEARCH FOUNDATION, priority 2006, published 2010).
Each block holds one compound with its values, some of them ahead of it. Where no end group is shown, it is not given here. acyl = not defined here

What was measured:
adenine deaminase = adenine deaminase (Bacillus subtilis, UniProt P39761); assay type: biochemical; details: hypoxanthine 3.5 μM to 142 μM, in the presence of 13.3 μM adenine
PRMT1 = PRMT1 (Rattus norvegicus, UniProt Q63009); experiment: enzyme-coupled continuous spectrophotometric methyltransferase assay (265 nm); details: for Vmax, R3 compared with JMH1: peptide substrates of PRMT1, in words
Chain of PRMT1 (Q63009 whole entry): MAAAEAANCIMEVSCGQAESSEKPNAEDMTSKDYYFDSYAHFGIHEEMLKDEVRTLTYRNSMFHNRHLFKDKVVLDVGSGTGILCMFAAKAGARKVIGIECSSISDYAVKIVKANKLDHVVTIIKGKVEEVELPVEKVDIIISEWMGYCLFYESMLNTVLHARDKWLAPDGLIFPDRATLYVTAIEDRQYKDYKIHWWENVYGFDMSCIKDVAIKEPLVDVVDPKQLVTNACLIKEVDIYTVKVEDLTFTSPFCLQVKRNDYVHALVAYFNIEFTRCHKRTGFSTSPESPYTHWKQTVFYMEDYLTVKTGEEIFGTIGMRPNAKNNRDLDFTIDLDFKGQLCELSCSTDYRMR

Chain of adenine deaminase (P39761 whole entry): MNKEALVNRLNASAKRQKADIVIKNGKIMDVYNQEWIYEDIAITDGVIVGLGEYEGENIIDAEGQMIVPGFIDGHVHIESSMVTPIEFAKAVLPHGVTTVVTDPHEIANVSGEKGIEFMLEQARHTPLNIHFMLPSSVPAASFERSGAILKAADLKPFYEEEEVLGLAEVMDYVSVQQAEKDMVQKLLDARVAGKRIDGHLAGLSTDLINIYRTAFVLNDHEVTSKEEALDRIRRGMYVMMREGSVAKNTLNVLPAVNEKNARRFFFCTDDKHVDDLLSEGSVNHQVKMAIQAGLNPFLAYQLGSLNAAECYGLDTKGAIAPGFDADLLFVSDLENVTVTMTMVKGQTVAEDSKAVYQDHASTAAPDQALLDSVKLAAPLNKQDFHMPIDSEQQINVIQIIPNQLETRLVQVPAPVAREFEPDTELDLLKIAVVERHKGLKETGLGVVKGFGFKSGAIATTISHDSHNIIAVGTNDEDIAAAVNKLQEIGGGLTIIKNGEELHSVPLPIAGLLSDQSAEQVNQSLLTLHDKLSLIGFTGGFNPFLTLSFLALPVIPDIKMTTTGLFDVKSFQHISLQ

Compound: O=c1[nH]cnc2nc[nH]c12 [hypoxanthine]
inhibition of adenine deaminase (adenine deaminase): did not inhibit

Vmax, R3 compared with JMH1 (PRMT1): similar
Compound: acylKGGFGGRGGFGGK (SEQ ID NO:2) (acyl-KGGFGGRGGFGGK; reading uncertain; also: N-terminal acyl group not given here, printed as acylKGGFGGRGGFGGK) [JMH1]

rate, continuous spectrophotometric assay (PRMT1; 2 μM PRMT1, 211 μM R3): 5.1±0.2 μM AdoHyc formed/min
Vmax, R3 compared with JMH1 (PRMT1): similar
Compound: acylGGRGGFGGRGGFGGRGGFG (SEQ ID NO:3) [R3]

Vmax (PRMT1; peptide substrate of PRMT1): 5.7 ± 0.2 µM/min
Compound: acylSGRGKGGKGLGKGGAK (SEQ ID NO:1) [H4 peptide]
